Several values for one entry are separate records, joined by “and”; a condition that tells them apart may be missing. Identical values can stand only once. Like-named read-outs stand apart in the source and are kept apart here. Where a SMILES comes first, the peptide text is derived from it. The star is where a group is joined. DOTA = O=C(O)CN1CCN(CC(=O)O)CCN(CC(=O)*)CCN(CC(=O)O)CC1; AEEA = NCCOCCOCC(=O)O
What was measured:
[1] = Biodistribution in BxPC3-luc tumor-bearing mice; assay type: in vivo; conditions: female, BALB/c nu/nu, mouse, stomach, iv, 74 kBq, total radioactivity; 1 h post-injection
[2] = Octanol-water partition coefficient (log P), shake-flask; conditions: n-octanol/PBS, pH 7.4
Description: The octanol-water partition coefficients for radiotracers were determined via the assessment of their distribution in n-octanol and PBS (pH 7.4) using shake-flask method as described previously [48]. Radioactivity of each layer was measured using auto well gamma counter (n = 4).

[3] = Biodistribution in BxPC3-luc tumor-bearing mice; assay type: in vivo, BALB/c nu/nu mice; conditions: female, BALB/c nu/nu, iv, total radioactivity
Description: (§1) All animal handling procedures were approved by the Kanazawa University Animal Care Committee. Experiments with animals were conducted in accordance with the Guidelines for the Care and Use of Laboratory Animals of Kanazawa University. The animals were housed with free access to food and water at 23 °C with a 12 h light/dark schedule. Four-week-old female BALB/c nu/nu mice (12–17 g) were purchased from Japan SLC Inc. (Hamamatsu, Japan). The tumor-bearing model was prepared by subcutaneous inoculation of 1 × 10^7 BxPC3-luc cells into left shoulder of female BALB/c nu/nu mice. The biodistribution experiment was performed approximately 4–5 weeks post-inoculation.
(§2) A saline solution of [^67Ga]27 or [^67Ga]28 (74 kBq, 100 µL) was injected intravenously into the tail vein of the mice. The mice were sacrificed at 10 min post-injection for [^67Ga]27 and 1 h post-injection for [^67Ga]27 or [^67Ga]28. For in vivo blocking studies, 100 μL of a mixed saline solution of [^67Ga]27 (74 kBq) and IPLPPPRRPFFK peptide (1 mg/mouse) was injected via tile vein into the tumor-bearing mice. The mice were sacrificed at 1 h post-injection. Tissues of interest were removed and weighed. The radioactivity of the tissues was determined using an auto well gamma counter, and counts were corrected for background radiation and physical decay during counting. The data were expressed as percent injected dose per gram tissue (%ID/g).

[4] = tested on: BxPC3-luc tumor-bearing mice; experiment: Biodistribution in BxPC3-luc tumor-bearing mice; assay type: in vivo, BALB/c nu/nu mice
Description: as §1, §2

[5] = In vitro stability in murine plasma; conditions: 37 °C
Description: (§3) Briefly, the solution of radiotracers (37 kBq/well, 50 µL) in a sealed tube containing 0.1 M PBS pH 7.4 (450 µL) was incubated at 37 °C for 24 h. At 3 and 24 h after incubation, the purity of radiotracers was analyzed by RP-HPLC. Meanwhile, for stability assay in murine plasma, radiotracers were mixed in murine plasma at a ratio of 1:10. After incubation at 37 °C for 10 min and 1 h, an equivalent amount of ice-cold acetonitrile was added. After centrifugation at 1000× g at 4 °C for 10 min, the supernatant was filtered through a 0.45-µm filter followed by analyzing using RP-HPLC as described above. Then, the radiochemical purities were determined.

[6] = In vitro stability in PBS pH 7.4; conditions: 37 °C, 0.1 M PBS pH 7.4
Description: as §3

tissue uptake dose at 1 h [1]: 0.06 %ID | logP [2]: < -4 | tissue uptake at 1 h ([3]; blood, 1 h, blocking: co-injection of IPLPPPRRPFFK 1 mg/mouse, read-out: Biodistribution, Blood): 0.93 %ID/g | tissue uptake at 1 h ([3]; bone, 1 h, blocking: co-injection of IPLPPPRRPFFK 1 mg/mouse, read-out: Biodistribution, Bone): 0.21 %ID/g | tissue uptake at 1 h ([3]; brain, 1 h, blocking: co-injection of IPLPPPRRPFFK 1 mg/mouse, read-out: Biodistribution, Brain): 0.02 %ID/g | tissue uptake at 1 h ([3]; heart, 1 h, blocking: co-injection of IPLPPPRRPFFK 1 mg/mouse, read-out: Biodistribution, Heart): 0.28 %ID/g | tissue uptake at 1 h ([3]; 1 h, blocking: co-injection of IPLPPPRRPFFK 1 mg/mouse, BxPC3-luc tumor, read-out: Biodistribution, Tumor): 0.96 %ID/g | tissue uptake at 1 h ([3]; kidney, 1 h, blocking: co-injection of IPLPPPRRPFFK 1 mg/mouse, read-out: Biodistribution, Kidney): 12.2 %ID/g | tissue uptake at 1 h ([3]; large intestine, 1 h, blocking: co-injection of IPLPPPRRPFFK 1 mg/mouse, read-out: Biodistribution, Large intestine): 0.25 %ID/g | tissue uptake at 1 h ([3]; liver, 1 h, blocking: co-injection of IPLPPPRRPFFK 1 mg/mouse, read-out: Biodistribution, Liver): 0.27 %ID/g | tissue uptake at 1 h ([3]; lung, 1 h, blocking: co-injection of IPLPPPRRPFFK 1 mg/mouse, read-out: Biodistribution, Lung): 0.66 %ID/g | tissue uptake at 10 min ([3]; mouse, blood, 74 kBq, 10 min post-injection, i.v., read-out: Biodistribution, Blood): 3.87 %ID/g | tissue uptake at 1 h ([3]; mouse, blood, 74 kBq, 1 h post-injection, i.v., read-out: Biodistribution, Blood): 0.15 %ID/g | tissue uptake at 10 min ([3]; mouse, bone, 74 kBq, 10 min post-injection, i.v., read-out: Biodistribution, Bone): 1.62 %ID/g | tissue uptake at 1 h ([3]; mouse, bone, 74 kBq, 1 h post-injection, i.v., read-out: Biodistribution, Bone): 0.24 %ID/g | tissue uptake at 10 min ([3]; mouse, brain, 74 kBq, 10 min post-injection, i.v., read-out: Biodistribution, Brain): 0.13 %ID/g | tissue uptake at 1 h ([3]; mouse, brain, 74 kBq, 1 h post-injection, i.v., read-out: Biodistribution, Brain): 0.01 %ID/g | tissue uptake at 10 min ([3]; mouse, heart, 74 kBq, 10 min post-injection, i.v., read-out: Biodistribution, Heart): 1.47 %ID/g | tissue uptake at 1 h ([3]; mouse, heart, 74 kBq, 1 h post-injection, i.v., read-out: Biodistribution, Heart): 0.07 %ID/g | tissue uptake at 10 min ([3]; mouse, 74 kBq, 10 min post-injection, i.v., BxPC3-luc tumor, read-out: Biodistribution, Tumor): 3.11 %ID/g | tissue uptake at 1 h ([3]; mouse, 74 kBq, 1 h post-injection, i.v., BxPC3-luc tumor, read-out: Biodistribution, Tumor): 0.39 %ID/g | tissue uptake at 10 min ([3]; mouse, kidney, 74 kBq, 10 min post-injection, i.v., read-out: Biodistribution, Kidney): 13.9 %ID/g | tissue uptake at 1 h ([3]; mouse, kidney, 74 kBq, 1 h post-injection, i.v., read-out: Biodistribution, Kidney): 3.07 %ID/g | tissue uptake at 10 min ([3]; mouse, large intestine, 74 kBq, 10 min post-injection, i.v., read-out: Biodistribution, Large intestine): 0.87 %ID/g | tissue uptake at 1 h ([3]; mouse, large intestine, 74 kBq, 1 h post-injection, i.v., read-out: Biodistribution, Large intestine): 0.13 %ID/g | tissue uptake at 10 min ([3]; mouse, liver, 74 kBq, 10 min post-injection, i.v., read-out: Biodistribution, Liver): 0.9 %ID/g | tissue uptake at 1 h ([3]; mouse, liver, 74 kBq, 1 h post-injection, i.v., read-out: Biodistribution, Liver): 0.22 %ID/g | tissue uptake at 10 min ([3]; mouse, lung, 74 kBq, 10 min post-injection, i.v., read-out: Biodistribution, Lung): 3.7 %ID/g | tissue uptake at 1 h ([3]; mouse, lung, 74 kBq, 1 h post-injection, i.v., read-out: Biodistribution, Lung): 0.46 %ID/g | tissue uptake at 10 min ([3]; mouse, muscle, 74 kBq, 10 min post-injection, i.v., read-out: Biodistribution, Muscle): 0.86 %ID/g | tissue uptake at 1 h ([3]; mouse, muscle, 74 kBq, 1 h post-injection, i.v., read-out: Biodistribution, Muscle): 0.07 %ID/g | tissue uptake at 10 min ([3]; mouse, pancreas, 74 kBq, 10 min post-injection, i.v., read-out: Biodistribution, Pancreas): 0.89 %ID/g | tissue uptake at 1 h ([3]; mouse, pancreas, 74 kBq, 1 h post-injection, i.v., read-out: Biodistribution, Pancreas): 0.13 %ID/g | tissue uptake at 10 min ([3]; mouse, small intestine, 74 kBq, 10 min post-injection, i.v., read-out: Biodistribution, Small intestine): 1.16 %ID/g | tissue uptake at 1 h ([3]; mouse, small intestine, 74 kBq, 1 h post-injection, i.v., read-out: Biodistribution, Small intestine): 0.63 %ID/g | tissue uptake at 10 min ([3]; mouse, spleen, 74 kBq, 10 min post-injection, i.v., read-out: Biodistribution, Spleen): 0.99 %ID/g | tissue uptake at 1 h ([3]; mouse, spleen, 74 kBq, 1 h post-injection, i.v., read-out: Biodistribution, Spleen): 0.13 %ID/g | tissue uptake dose at 10 min ([3]; mouse, stomach, 74 kBq, 10 min post-injection): 0.19 %ID | tissue to tissue ratio at 10 min ([3]; mouse, tumor/blood, 74 kBq, 10 min post-injection): 0.81 | tissue to tissue ratio at 1 h ([3]; mouse, tumor/blood, 74 kBq, 1 h post-injection): 2.61 | tissue uptake at 1 h ([3]; muscle, 1 h, blocking: co-injection of IPLPPPRRPFFK 1 mg/mouse, read-out: Biodistribution, Muscle): 0.22 %ID/g | tissue uptake at 1 h ([3]; pancreas, 1 h, blocking: co-injection of IPLPPPRRPFFK 1 mg/mouse, read-out: Biodistribution, Pancreas): 0.21 %ID/g | tissue uptake at 1 h ([3]; small intestine, 1 h, blocking: co-injection of IPLPPPRRPFFK 1 mg/mouse, read-out: Biodistribution, Small intestine): 0.66 %ID/g | tissue uptake at 1 h ([3]; spleen, 1 h, blocking: co-injection of IPLPPPRRPFFK 1 mg/mouse, read-out: Biodistribution, Spleen): 0.29 %ID/g | tissue uptake dose at 1 h ([3]; stomach, 1 h, blocking: co-injection of IPLPPPRRPFFK 1 mg/mouse): 0.05 %ID | tissue to tissue ratio at 1 h ([3]; tumor/blood, 1 h, blocking: co-injection of IPLPPPRRPFFK 1 mg/mouse): 1.19 | Tumor/Blood ratio ([4]; 1 h, blocking: co-injection of IPLPPPRRPFFK 1 mg/mouse): significantly decreased | Tumor/Blood ratio ([4]; 1 h post-injection, i.v.): 2.61 and 2.61 ± 0.75 | In vitro stability in murine plasma, percentage of remained intact radiotracer ([5]; 1 h, 60 min): 75.9 ± 1.2% | remaining at 10 min ([5]; mouse, plasma, In vitro stability in murine plasma, percentage of remained intact radiotracer, 10 min): 84.4 ± 2% | remaining at 1 h ([5]; mouse, plasma, In vitro stability in murine plasma, percentage of remained intact radiotracer, 1 h): > 75% | In vitro stability in PBS pH 7.4, percentage of remained intact radiotracer ([6]; 3 h): 96.9 ± 0.5% | In vitro stability in PBS pH 7.4, percentage of remained intact radiotracer ([6]; 24 h): 95.6 ± 0.4%
Structure (SMILES): CC[C@H](C)[C@H](NC(=O)COCCOCCNC(=O)CN1CCN(CC(=O)O)CCN(CC(=O)O)CCN(CC(=O)O)CC1)C(=O)N1CCC[C@H]1C(=O)N[C@@H](CC(C)C)C(=O)N1CCC[C@H]1C(=O)N1CCC[C@H]1C(=O)N1CCC[C@H]1C(=O)N[C@@H](CCCNC(=N)N)C(=O)N[C@@H](CCCNC(=N)N)C(=O)N1CCC[C@H]1C(=O)N[C@@H](Cc1ccccc1)C(=O)N[C@@H](Cc1ccccc1)C(=O)N[C@@H](CCCCN)C(=O)O [[^67Ga]27, [^67Ga]Ga-DOTA-EG2-IPLPPPRRPFFK, metal not drawn] ({DOTA-AEEA}-IPLPPPRRPFFK-OH)

Source: PMC7795354, “Development of Radiogallium-Labeled Peptides for Platelet-Derived Growth Factor Receptor β (PDGFRβ) Imaging: Influence of Different Linkers” (Molecules, 2020)
